Data published in ChEMBL document CHEMBL1201862, “PubChem BioAssay data set” (2004).
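Values below derive from 48-hour exposures of cells grown in 96-well plates, with endpoints linearly interpolated between the two concentrations bracketing the appropriate inhibition level. GI50 = concentration required for 50% inhibition of growth.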 The source made the active and inactive calls. Rule as the data show it: active = GI50 up to about 1.1 µM and inactive = higher. Where a SMILES comes first, the peptide text is derived from it. [ ]: non-standard residue; d: D form. The star is where a group is joined. Chg = N[CH](C(=O)O)C1CCCCC1; Cbz = O=C(OCc1ccccc1)*; OBn = c1ccc(CO*)cc1

What was measured:
Test in all cases: NCI tumour cell line growth inhibition, 48 h
M14 = test system: M14
SW-620 = test system: SW-620
SK-MEL-28 = test system: SK-MEL-28
HCT-116 = test system: HCT-116
LOX IMVI = test system: LOX IMVI
UO-31 = test system: UO-31
SN12C = test system: SN12C
NCI/ADR-RES = test system: NCI/ADR-RES
UACC-257 = test system: UACC-257
MDA-MB-231 = test system: MDA-MB-231
NCI-H23 = test system: NCI-H23
RXF 393 = test system: RXF 393
TK-10 = test system: TK-10
U-251 = test system: U-251
MDA-MB-435 = test system: MDA-MB-435
A549 = test system: A549
KM12 = test system: KM12
EKVX = test system: EKVX
A498 = test system: A498

Measured: GI50

CCOC(=O)Cn1c(=O)c2nc(SC)sc2n(-c2ccccc2)c1=S
inactive: M14 32.5 µM | SW-620 50.4 µM | SK-MEL-28 96.6 µM | HCT-116 27.5 µM | LOX IMVI 94 µM | UO-31 4.43 µM | SN12C 35.9 µM | NCI/ADR-RES 36.7 µM | UACC-257 > 100 µM | MDA-MB-231 22.3 µM | NCI-H23 36.5 µM | RXF 393 21 µM | TK-10 30.3 µM | U-251 13.4 µM | MDA-MB-435 64.6 µM | A549 82.2 µM | KM12 25.8 µM

COc1ccc2c(c1)CCCN1CCc3ccccc3C21 (stereo unspecified)
inactive: M14 20.4 µM | SW-620 67.8 µM | SK-MEL-28 36.5 µM | HCT-116 16.8 µM | LOX IMVI 32.5 µM | SN12C 23.3 µM | NCI/ADR-RES 16.8 µM | UACC-257 47.8 µM | MDA-MB-231 23.9 µM | NCI-H23 35.7 µM | EKVX 76.4 µM | A498 55.3 µM | RXF 393 25.9 µM | TK-10 43.1 µM | U-251 28.4 µM | MDA-MB-435 21.7 µM | A549 37.3 µM | KM12 34.7 µM

O=C(Cc1ccccc1)NS(=O)(=O)c1ccccc1
inactive: M14 > 100 µM | SW-620 > 100 µM | SK-MEL-28 > 100 µM | HCT-116 > 100 µM | LOX IMVI > 100 µM | UO-31 > 100 µM | SN12C > 100 µM | UACC-257 > 100 µM | NCI-H23 > 100 µM | EKVX > 100 µM | A498 > 100 µM | RXF 393 > 100 µM | TK-10 > 100 µM | U-251 > 100 µM | A549 > 100 µM | KM12 > 100 µM

CC1(C)CCC(C)(C)C1C(=O)NC(O)C(=O)O (stereo unspecified)
inactive: M14 > 100 µM | SW-620 > 100 µM | SK-MEL-28 > 100 µM | HCT-116 > 100 µM | LOX IMVI > 100 µM | UO-31 > 100 µM | SN12C > 100 µM | NCI/ADR-RES > 100 µM | MDA-MB-231 > 100 µM | NCI-H23 > 10 µM | EKVX > 100 µM | A498 > 100 µM | TK-10 > 100 µM | U-251 > 100 µM | MDA-MB-435 > 100 µM | A549 > 100 µM

CN(C)c1ccc(/C=C(/NC(=O)c2ccccc2)c2nc3cc(Cl)ccc3[nH]2)cc1
inactive: M14 32.7 µM | SW-620 10.4 µM | SK-MEL-28 83.9 µM | HCT-116 37.8 µM | LOX IMVI 18.3 µM | UO-31 28.8 µM | SN12C 47.9 µM | UACC-257 20.3 µM | NCI-H23 8.51 µM | EKVX 87.3 µM | A498 72.3 µM | RXF 393 30.2 µM | TK-10 64.4 µM | U-251 35.5 µM | A549 63.2 µM | KM12 15.6 µM

COC(=O)C(NC(=O)C(CC(=O)OCc1ccccc1)NC(=O)OCc1ccccc1)C1CCCCC1 (stereo unspecified) (Cbz-Asp(OBn)-[Chg]-OMe; configuration not given here)
inactive: M14 > 100 µM | SW-620 > 100 µM | SK-MEL-28 > 100 µM | HCT-116 > 100 µM | LOX IMVI > 100 µM | UO-31 69.7 µM | SN12C > 100 µM | NCI/ADR-RES > 100 µM | UACC-257 > 100 µM | MDA-MB-231 84.3 µM | NCI-H23 > 100 µM | EKVX > 100 µM | RXF 393 > 100 µM | TK-10 > 100 µM | U-251 > 100 µM | MDA-MB-435 > 100 µM | A549 > 100 µM | KM12 > 100 µM
